In patent publication US20260098030A1, “NEGATIVE ALLOSTERIC MODULATORS OF METABOTROPIC GLUTAMATE RECEPTOR 2” (Vanderbilt University, priority 2022, published 2026) one finds IC50 data, which are given here for 33 compounds.

A value given as a limit tells only on which side of the number the result lay.

The target in the experiment is T1, rat mGlu2 (Rattus norvegicus, UniProt P31421).
T1 construct: expressed in transfected cells; host or cells: HEK-293 cells stably co-expressing GIRK channels
Briefly: mGlu GIRK cell-based thallium flux assay, rat mGlu2. Conditions: HEK-293 cells co-expressing rat mGlu2 and GIRK, EC80 glutamate. The procedure:
Human embryonic kidney (HEK-293) cell lines stably co-expressing human or rat mGlu2 and G protein-coupled inwardly rectifying potassium (GIRK) channels, or human mGlu3 and GIRK, were used for in vitro evaluation of compound activity in thallium flux assay using a fluorescent thallium indicator dye.
The day before the assay, GIRK cells co-expressing human mGlu3, human or rat mGlu2, as described above, were plated in black-walled, clear-bottomed, amine-coated 384-well plates at a density of 15,000 cells/20 μL/well in the assay medium (glutamine-depleted basal DMEM supplemented with 10% dialyzed FBS, 20 mM HEPES, 1 mM sodium pyruvate). Cells were incubated at 37° C. in the presence of 5% CO2. The next day, assay buffer (Hanks balanced salt solution, 20 mM HEPES, 4.16 mM sodium bicarbonate, pH 7.2) was prepared to dilute compounds and Thallos AM fluorescent dye solution. The 2× Thallos dye solution (final concentration 0.34 μM to the cells) was prepared by mixing the dye stock (2.97 mM in DMSO) to 1:1 with 10% pluronic acid before adding to the assay buffer. Cells were washed with assay buffer using a microplate washer to remove the medium, resulting in 20 μL of buffer remaining in each well. Immediately, 20 μL of 2× Thallos dye solution was added to cells, and incubated for one hour at 25° C. During the cell dye loading incubation period, a 10-point concentration serial dilution of compound was created from a 10 mM DMSO compound stock by performing a 1:3 serial dilution in DMSO using the Bravo liquid handler. The 2× compound plate was generated by transferring 0.24 μL of the diluted compound in each well to a daughter plate using an Echo acoustic liquid handler. This is further diluted in 40 μL assay buffer, resulting in a range from 30 μM to 1.5 nM final concentration in the assay. The agonist plate (5×) was prepared to include EC80 glutamate concentration (a concentration to elicit 80% of a maximally effective glutamate concentration) in thallium buffer (125 mM […], 1 mM magnesium sulfate, 1.8 mM calcium sulfate, 5 mM glucose, 10 mM HEPES, pH 7.2, 12.5 mM thallium sulfate).
After dye-loading, cell plates were washed with assay buffer to remove excess extracellular dye using a microplate washer, resulting in 20 μL of buffer remaining in each well. After a ten-minute equilibration period, cell, compound and agonist plates were loaded into a Hamamatsu μCell kinetic imaging plate reader equipped with liquid handler to monitor fluorescence changes at 480 nm excitation and 540 nm emission settings. Briefly, after collection of baseline fluorescence, 20 μL of compound was added and incubated for two minutes and twenty seconds. This is immediately followed by adding 10 μL of glutamate-thallium buffer to the wells containing compound. The fluorescent signal was monitored an additional 2.5 minutes after the glutamate addition. Multiple reference wells containing no compound received either no glutamate (for a baseline reference), EC80 glutamate, or ECmax glutamate (for normalization to maximum response). Fluorescence was measured throughout the experiment at a frequency of 1 measurement per every 2 seconds before the glutamate addition and a frequency of 1 measurement per every 1 second after the glutamate addition. Each compound concentration series occurred one time in each plate, and replicates from two or three plates were used in each experimental run. Thallium solutions were handled and disposed of according to guidelines from the Vanderbilt University Chemical Safety department.
Data were normalized using a static ratio function (F/F0) by dividing every fluorescent measurement by the initial fluorescent value for the corresponding well. The increase in signal resulting from the glutamate/thallium addition of the second add was measured by determining the slope from 3 seconds to 13 seconds after the addition. […]

T1 sequence (P31421 19-872): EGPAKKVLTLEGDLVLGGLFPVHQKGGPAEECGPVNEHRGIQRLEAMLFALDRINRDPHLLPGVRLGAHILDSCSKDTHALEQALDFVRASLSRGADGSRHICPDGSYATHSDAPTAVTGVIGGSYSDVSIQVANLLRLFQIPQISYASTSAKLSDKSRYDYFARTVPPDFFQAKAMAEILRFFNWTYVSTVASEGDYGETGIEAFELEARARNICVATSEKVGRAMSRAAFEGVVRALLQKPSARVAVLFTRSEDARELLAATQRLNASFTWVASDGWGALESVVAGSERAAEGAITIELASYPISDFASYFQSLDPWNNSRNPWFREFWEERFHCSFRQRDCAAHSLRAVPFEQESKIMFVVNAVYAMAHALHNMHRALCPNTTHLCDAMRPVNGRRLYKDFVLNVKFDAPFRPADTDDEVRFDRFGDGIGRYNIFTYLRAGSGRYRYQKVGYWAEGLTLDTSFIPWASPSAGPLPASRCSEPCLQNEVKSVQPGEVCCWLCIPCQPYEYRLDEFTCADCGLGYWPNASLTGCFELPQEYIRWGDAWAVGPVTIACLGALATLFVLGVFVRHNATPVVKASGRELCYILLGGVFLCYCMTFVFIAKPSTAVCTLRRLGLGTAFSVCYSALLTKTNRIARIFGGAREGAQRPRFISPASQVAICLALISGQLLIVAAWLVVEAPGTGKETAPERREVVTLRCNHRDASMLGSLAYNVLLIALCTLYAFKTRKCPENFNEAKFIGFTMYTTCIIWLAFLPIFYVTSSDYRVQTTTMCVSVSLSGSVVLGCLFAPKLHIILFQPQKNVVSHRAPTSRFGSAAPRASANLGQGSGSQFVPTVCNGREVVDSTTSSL

In the case of `O=C1NCc2cc(-c3ccc4ocnc4c3)c(-c3ccc(F)cc3)cc21` [Compound 12, 5-(benzo[d]oxazol-5-yl)-6-(4-fluorophenyl)isoindolin-1-one], the IC50 (usually the concentration at which inhibition is half-maximal) turned out to be 0.094 µM.

On to `O=C1NCc2cc(-c3c[nH]nc3C(F)(F)F)c(-c3ccc(F)cc3F)cc21` [Compound 114, 6-(2,4-difluorophenyl)-5-(3-(trifluoromethyl)-1H-pyrazol-4-yl)isoindolin-1-one], for which the half-inhibitory concentration (IC50) is over 10 µM. `O=C1NCc2cc(-c3cnc(C(F)(F)F)nc3)c(-c3ccc(F)cc3F)cc21` [Compound 86, 6-(2,4-difluorophenyl)-5-(2-(trifluoromethyl)pyrimidin-5-yl)isoindolin-1-one] gave an IC50 of over 10 µM. Compound `CN1CCC(c2cc3c(cc2-c2ccc(F)cc2)C(=O)NC3)CC1` [Compound 66, 6-(4-fluorophenyl)-5-(1-methylpiperidin-4-yl)isoindolin-1-one] registered an IC50 of over 10 µM. The result for `O=C1NCc2cc(C3=CCN(Cc4ccccc4)CC3)c(-c3ccc(F)cc3)cc21` [Compound 56, 5-(1-benzyl-1,2,3,6-tetrahydropyridin-4-yl)-6-(4-fluorophenyl)isoindolin-1-one] reads over 10 µM; that for `N#Cc1cc(-c2cc3c(cc2-c2ccc(F)cc2F)C(=O)NC3)ccc1F` [Compound 93, 5-(6-(2,4-difluorophenyl)-1-oxoisoindolin-5-yl)-2-fluorobenzonitrile], 1.5 µM.

Compound `CN1CCN(c2ccc(-c3cc4c(cc3-c3ccc(F)cc3F)C(=O)NC4)cc2)CC1` [Compound 113, 6-(2,4-difluorophenyl)-5-(4-(4-methylpiperazin-1-yl)phenyl)isoindolin-1-one] displayed an IC50 of over 10 µM. Take `N#Cc1cccc(-n2cc(-c3cc4c(cc3-c3ccc(F)cc3F)C(=O)NC4)cn2)c1` [Compound 99, 3-(4-(6-(2,4-difluorophenyl)-1-oxoisoindolin-5-yl)-1H-pyrazol-1-yl)benzonitrile]: the concentration for half-maximal inhibition (IC50) was over 10 µM. `CC1CC(c2cc3c(cc2-c2ccc(F)cc2)C(=O)NC3)CCN1` (stereo not drawn) [Compound 85, 6-(4-fluorophenyl)-5-(2-methylpiperidin-4-yl)isoindolin-1-one] returned an IC50 of over 10 µM. The compound `COc1ccc(-c2cc3c(cc2-c2ccc(F)cc2F)C(=O)NC3)cc1C#N` [Compound 92, 5-(6-(2,4-difluorophenyl)-1-oxoisoindolin-5-yl)-2-methoxybenzonitrile] came in with an IC50 of 0.618 µM.

As for `O=C1NCc2cc(-c3cnc4[nH]ccc4c3)c(-c3ccc(F)cc3)cc21` [Compound 38, 6-(4-fluorophenyl)-5-(1H-pyrrolo[2,3-b]pyridin-5-yl)isoindolin-1-one], the IC50 was found to be 1.96 µM. Under `O=C1NCc2cc(C3=CCOCC3)c(-c3ccc(F)cc3)cc21` [Compound 55, 5-(3,6-dihydro-2H-pyran-4-yl)-6-(4-fluorophenyl)isoindolin-1-one] stands over 10 µM; under `N#Cc1ccc(-c2cc3c(cc2-c2ccc(F)cc2)C(=O)NC3)cn1` [Compound 33, 5-(6-(4-fluorophenyl)-1-oxoisoindolin-5-yl)picolinonitrile], over 10 µM. Under `O=C1NCc2cc(-c3ccc(C(F)(F)F)nc3)c(-c3ccc(F)cc3)cc21` [Compound 27, 6-(4-fluorophenyl)-5-(6-(trifluoromethyl)pyridin-3-yl)isoindolin-1-one] stands over 10 µM; under `Cc1ccc(-c2cc3c(cc2-c2ccc(F)cc2)C(=O)NC3)c(C)n1` [Compound 29, 5-(2,6-dimethylpyridin-3-yl)-6-(4-fluorophenyl)isoindolin-1-one], 3.6 µM. Under `O=C1NCc2cc(C3CCCNC3)c(-c3ccc(F)cc3)cc21` (stereo not drawn) [Compound 78, 6-(4-fluorophenyl)-5-(piperidin-3-yl)isoindolin-1-one] stands over 10 µM; under `CN(C)c1ncccc1-c1cc2c(cc1-c1ccc(F)cc1F)C(=O)NC2` [Compound 71, 6-(2,4-difluorophenyl)-5-(2-(dimethylamino)pyridin-3-yl)isoindolin-1-one], 5.1 µM; under `CC(C)c1ncccc1-c1cc2c(cc1-c1ccc(F)cc1)C(=O)NC2` [Compound 42, 6-(4-fluorophenyl)-5-(2-isopropylpyridin-3-yl)isoindolin-1-one], 7.55 µM. The compound `CN1CCC=C(c2cc3c(cc2-c2ccc(F)cc2)C(=O)NC3)C1` [Compound 57, 6-(4-fluorophenyl)-5-(1-methyl-1,2,5,6-tetrahydropyridin-3-yl)isoindolin-1-one] gave a half-inhibitory concentration (IC50) of over 10 µM. The compound `COC1CC=C(c2cc3c(cc2-c2ccc(F)cc2)C(=O)NC3)CC1` (stereo not drawn) [Compound 54, 6-(4-fluorophenyl)-5-(4-methoxycyclohex-1-en-1-yl)isoindolin-1-one] yielded an IC50 of over 10 µM. The result for `O=C1NCc2cc(-c3cccnc3C(F)(F)F)c(-c3ccc(F)cc3F)cc21` [Compound 110, 6-(2,4-difluorophenyl)-5-(2-(trifluoromethyl)pyridin-3-yl)isoindolin-1-one] reads over 10 µM; that for `CN1CC=C(c2cc3c(cc2-c2ccc(F)cc2)C(=O)NC3)CC1` [Compound 58, 6-(4-fluorophenyl)-5-(1-methyl-1,2,3,6-tetrahydropyridin-4-yl)isoindolin-1-one], over 10 µM; that for `CC1CC(c2cc3c(cc2-c2ccc(F)cc2)C(=O)NC3)=CCN1` (stereo not drawn) [Compound 84, 6-(4-fluorophenyl)-5-(2-methyl-1,2,3,6-tetrahydropyridin-4-yl)isoindolin-1-one], over 10 µM. `CN(C)c1ncccc1-c1cc2c(cc1-c1ccc(F)cc1)C(=O)NC2` [Compound 39, 5-(2-(dimethylamino)pyridin-3-yl)-6-(4-fluorophenyl)isoindolin-1-one] gave an IC50 of over 10 µM.

`Cc1cc(-c2cc3c(cc2-c2ccc(F)cc2F)C(=O)NC3)c(C)n1C` [Compound 97, 6-(2,4-difluorophenyl)-5-(1,2,5-trimethyl-1H-pyrrol-3-yl)isoindolin-1-one]: the IC50 is 0.938 µM. `O=C1NCc2cc(C3=CCNCC3)c(-c3ccc(F)cc3)cc21` [Compound 60, 6-(4-fluorophenyl)-5-(1,2,3,6-tetrahydropyridin-4-yl)isoindolin-1-one] yielded an IC50 of over 10 µM.

Compound `O=C1NCc2cc(C3=CCNC3)c(-c3ccc(F)cc3)cc21` [Compound 82, 5-(2,5-dihydro-1H-pyrrol-3-yl)-6-(4-fluorophenyl)isoindolin-1-one] gave a 50% inhibitory concentration (IC50) of over 10 µM. Under `CC1(C)CNCC=C1c1cc2c(cc1-c1ccc(F)cc1)C(=O)NC2` [Compound 76, 5-(3,3-dimethyl-1,2,3,6-tetrahydropyridin-4-yl)-6-(4-fluorophenyl)isoindolin-1-one] stands over 10 µM; under `Cc1nc2cc(-c3cc4c(cc3-c3ccc(F)cc3)C(=O)NC4)ccc2[nH]1` [Compound 10, 6-(4-fluorophenyl)-5-(2-methyl-1H-benzo[d]imidazol-5-yl)isoindolin-1-one], over 10 µM; under `COc1cc(C#N)cc(-c2cc3c(cc2-c2ccc(F)cc2F)C(=O)NC3)c1` [Compound 95, 3-(6-(2,4-difluorophenyl)-1-oxoisoindolin-5-yl)-5-methoxybenzonitrile], 1.44 µM. Under `Cn1ccc(-c2cc3c(cc2-c2ccc(F)cc2F)C(=O)NC3)n1` [Compound 80, 6-(2,4-difluorophenyl)-5-(1-methyl-1H-pyrazol-3-yl)isoindolin-1-one] stands 1.09 µM; under `Cc1ccc(-c2cc3c(cc2-c2ccc(F)cc2)C(=O)NC3)cn1` [Compound 6, 6-(4-fluorophenyl)-5-(6-methylpyridin-3-yl)isoindolin-1-one], 2.46 µM. Under `CC1CC(c2cc3c(cc2-c2ccc(F)cc2)C(=O)NC3)CC(C)N1` (stereo not drawn) [Compound 68, 5-(2,6-dimethylpiperidin-4-yl)-6-(4-fluorophenyl)isoindolin-1-one] stands over 10 µM.
